Columns and labels:
Test in all cases: KINOMEscan binding assay
[1] = biological target: T1, RPS6KA4(Kin.Dom.1-N-terminal) (Homo sapiens, UniProt O75676); details: read-out: % Retention on Solid Support
T1 construct: RPS6KA4(Kin.Dom.1-N-terminal); purchased DiscoveRx KINOMEscan
Summary of the method: (§1)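 Readout reflects displacement of an active site-directed ligand, scored across more than 400 kinases with i-CDK9 at 1 µM and at 10 µM.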

[2] = biological target: T2, MRCKA (Homo sapiens, UniProt Q5VT25); details: read-out: % Retention on Solid Support
T2 construct: purchased DiscoveRx KINOMEscan
Summary of the method: as §1

[3] = biological target: T3, CHEK1 (Homo sapiens, UniProt O14757)
T3 construct: purchased DiscoveRx KINOMEscan
Summary of the method: as §1

[4] = biological target: T4, FAK (Homo sapiens, UniProt Q05397); details: read-out: % Retention on Solid Support
T4 construct: purchased DiscoveRx KINOMEscan
Summary of the method: as §1

[5] = biological target: T5, TNK1 (Homo sapiens, UniProt Q13470); details: read-out: % Retention on Solid Support
T5 construct: purchased DiscoveRx KINOMEscan
Summary of the method: as §1

[6] = biological target: T6, SLK (Homo sapiens, UniProt Q9H2G2); details: read-out: % Retention on Solid Support
T6 construct: purchased DiscoveRx KINOMEscan
Summary of the method: as §1

[7] = biological target: T7, CAMK2G (Homo sapiens, UniProt Q13555); details: read-out: % Retention on Solid Support
T7 construct: purchased DiscoveRx KINOMEscan
Summary of the method: as §1

[8] = biological target: T8, IKK-epsilon (Homo sapiens, UniProt Q14164); details: read-out: % Retention on Solid Support
T8 construct: purchased DiscoveRx KINOMEscan
Summary of the method: as §1

[9] = biological target: T9, EPHA5 (Homo sapiens, UniProt P54756)
T9 construct: purchased DiscoveRx KINOMEscan
Summary of the method: as §1

[10] = biological target: T10, MLK2 (Homo sapiens, UniProt Q02779); details: read-out: % Retention on Solid Support
T10 construct: purchased DiscoveRx KINOMEscan
Summary of the method: as §1

[11] = biological target: T11, YSK1 (Homo sapiens, UniProt O00506); details: read-out: % Retention on Solid Support
T11 construct: purchased DiscoveRx KINOMEscan
Summary of the method: as §1

[12] = biological target: T12, ROCK1 (Homo sapiens, UniProt Q13464); details: read-out: % Retention on Solid Support
T12 construct: purchased DiscoveRx KINOMEscan
Summary of the method: as §1

[13] = biological target: T13, HIPK4 (Homo sapiens, UniProt Q8NE63); details: read-out: % Retention on Solid Support
T13 construct: purchased DiscoveRx KINOMEscan
Summary of the method: as §1

[14] = biological target: T14, BMX (Homo sapiens, UniProt P51813); details: read-out: % Retention on Solid Support
T14 construct: purchased DiscoveRx KINOMEscan
Summary of the method: as §1

[15] = biological target: RPS6KA5(Kin.Dom.2-C-terminal) (Homo sapiens, UniProt O75582); details: read-out: % Retention on Solid Support
Summary of the method: as §1

[16] = biological target: T15, STK35 (Homo sapiens, UniProt Q8TDR2); details: read-out: % Retention on Solid Support
T15 construct: purchased DiscoveRx KINOMEscan
Summary of the method: as §1

[17] = biological target: T16, FES (Homo sapiens, UniProt P07332); details: read-out: % Retention on Solid Support
T16 construct: purchased DiscoveRx KINOMEscan
Summary of the method: as §1

[18] = biological target: T17, BMPR1B (Homo sapiens, UniProt O00238); details: read-out: % Retention on Solid Support
T17 construct: purchased DiscoveRx KINOMEscan
Summary of the method: as §1

[19] = biological target: T18, EGFR(L858R) (Homo sapiens, UniProt P00533, L858R)
T18 construct: purchased DiscoveRx KINOMEscan
Summary of the method: as §1

[20] = biological target: T19, PIK3CA(E545K) (Homo sapiens, UniProt P42336, E545K); details: read-out: % Retention on Solid Support
T19 construct: purchased DiscoveRx KINOMEscan
Summary of the method: as §1

[21] = biological target: T20, RSK3(Kin.Dom.1-N-terminal) (Homo sapiens, UniProt Q15349); details: read-out: % Retention on Solid Support
T20 construct: RSK3(Kin.Dom.1-N-terminal); purchased DiscoveRx KINOMEscan
Summary of the method: as §1

[22] = biological target: T21, PIK3CA(E545A) (Homo sapiens, UniProt P42336, E545A); details: read-out: % Retention on Solid Support
T21 construct: purchased DiscoveRx KINOMEscan
Summary of the method: as §1

[23] = biological target: T22, INSR (Homo sapiens, UniProt P06213); details: read-out: % Retention on Solid Support
T22 construct: purchased DiscoveRx KINOMEscan
Summary of the method: as §1

[24] = biological target: T23, PKAC-alpha (Homo sapiens, UniProt P17612); details: read-out: % Retention on Solid Support
T23 construct: purchased DiscoveRx KINOMEscan
Summary of the method: as §1

[25] = biological target: T24, PRKCE (Homo sapiens, UniProt Q02156); details: read-out: % Retention on Solid Support
T24 construct: purchased DiscoveRx KINOMEscan
Summary of the method: as §1

[26] = biological target: T25, PIM3 (Homo sapiens, UniProt Q86V86); details: read-out: % Retention on Solid Support
T25 construct: purchased DiscoveRx KINOMEscan
Summary of the method: as §1

[27] = biological target: T26, FGR (Homo sapiens, UniProt P09769); details: read-out: % Retention on Solid Support
T26 construct: purchased DiscoveRx KINOMEscan
Summary of the method: as §1

[28] = biological target: T27, PKAC-beta (Homo sapiens, UniProt P22694); details: read-out: % Retention on Solid Support
T27 construct: purchased DiscoveRx KINOMEscan
Summary of the method: as §1

T12 sequence (Q13464 whole entry): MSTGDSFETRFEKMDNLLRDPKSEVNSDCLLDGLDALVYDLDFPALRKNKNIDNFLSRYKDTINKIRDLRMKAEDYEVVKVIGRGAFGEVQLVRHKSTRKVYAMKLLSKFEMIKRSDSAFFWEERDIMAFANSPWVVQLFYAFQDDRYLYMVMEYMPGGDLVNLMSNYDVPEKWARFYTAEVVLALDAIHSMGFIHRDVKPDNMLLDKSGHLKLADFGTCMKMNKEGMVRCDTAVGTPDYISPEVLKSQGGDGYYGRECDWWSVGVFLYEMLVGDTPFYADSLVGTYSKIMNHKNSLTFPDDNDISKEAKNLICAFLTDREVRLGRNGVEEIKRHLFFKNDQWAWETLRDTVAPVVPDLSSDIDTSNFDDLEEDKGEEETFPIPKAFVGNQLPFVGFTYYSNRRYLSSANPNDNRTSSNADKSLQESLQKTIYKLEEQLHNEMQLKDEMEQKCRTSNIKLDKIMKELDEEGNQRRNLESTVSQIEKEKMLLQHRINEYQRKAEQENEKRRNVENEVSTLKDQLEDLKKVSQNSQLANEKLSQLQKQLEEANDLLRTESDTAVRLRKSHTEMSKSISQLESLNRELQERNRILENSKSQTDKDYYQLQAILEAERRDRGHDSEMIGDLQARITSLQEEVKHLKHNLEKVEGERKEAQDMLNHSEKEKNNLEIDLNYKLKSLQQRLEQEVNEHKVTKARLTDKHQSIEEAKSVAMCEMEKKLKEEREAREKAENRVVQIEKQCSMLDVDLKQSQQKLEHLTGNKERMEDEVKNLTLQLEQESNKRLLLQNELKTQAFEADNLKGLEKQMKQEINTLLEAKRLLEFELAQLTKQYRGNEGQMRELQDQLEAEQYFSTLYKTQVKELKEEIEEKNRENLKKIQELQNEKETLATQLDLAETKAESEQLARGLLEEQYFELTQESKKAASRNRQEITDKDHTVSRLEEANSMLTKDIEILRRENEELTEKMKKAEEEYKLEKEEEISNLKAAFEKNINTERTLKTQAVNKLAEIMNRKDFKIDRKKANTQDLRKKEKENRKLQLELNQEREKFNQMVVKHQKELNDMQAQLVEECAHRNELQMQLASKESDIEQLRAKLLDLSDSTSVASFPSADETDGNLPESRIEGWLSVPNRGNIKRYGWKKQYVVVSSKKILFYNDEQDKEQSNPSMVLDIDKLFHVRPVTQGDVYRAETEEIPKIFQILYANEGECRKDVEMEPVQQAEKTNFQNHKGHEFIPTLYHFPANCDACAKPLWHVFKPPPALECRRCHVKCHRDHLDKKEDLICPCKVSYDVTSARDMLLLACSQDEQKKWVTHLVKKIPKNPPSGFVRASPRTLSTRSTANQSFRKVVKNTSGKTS
T20 sequence (Q15349 1-388 limits assumed): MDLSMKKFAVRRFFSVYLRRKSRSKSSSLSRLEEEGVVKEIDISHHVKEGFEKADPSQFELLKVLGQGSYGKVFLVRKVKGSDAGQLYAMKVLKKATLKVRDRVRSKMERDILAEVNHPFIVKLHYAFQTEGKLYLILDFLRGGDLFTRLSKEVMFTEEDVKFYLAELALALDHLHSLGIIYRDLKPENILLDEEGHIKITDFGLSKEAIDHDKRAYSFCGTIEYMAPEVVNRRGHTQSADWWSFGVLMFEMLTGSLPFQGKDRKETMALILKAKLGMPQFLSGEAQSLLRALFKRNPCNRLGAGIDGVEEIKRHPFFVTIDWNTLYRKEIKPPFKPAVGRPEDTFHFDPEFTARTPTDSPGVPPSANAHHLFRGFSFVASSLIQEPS
T16 sequence (P07332 whole entry): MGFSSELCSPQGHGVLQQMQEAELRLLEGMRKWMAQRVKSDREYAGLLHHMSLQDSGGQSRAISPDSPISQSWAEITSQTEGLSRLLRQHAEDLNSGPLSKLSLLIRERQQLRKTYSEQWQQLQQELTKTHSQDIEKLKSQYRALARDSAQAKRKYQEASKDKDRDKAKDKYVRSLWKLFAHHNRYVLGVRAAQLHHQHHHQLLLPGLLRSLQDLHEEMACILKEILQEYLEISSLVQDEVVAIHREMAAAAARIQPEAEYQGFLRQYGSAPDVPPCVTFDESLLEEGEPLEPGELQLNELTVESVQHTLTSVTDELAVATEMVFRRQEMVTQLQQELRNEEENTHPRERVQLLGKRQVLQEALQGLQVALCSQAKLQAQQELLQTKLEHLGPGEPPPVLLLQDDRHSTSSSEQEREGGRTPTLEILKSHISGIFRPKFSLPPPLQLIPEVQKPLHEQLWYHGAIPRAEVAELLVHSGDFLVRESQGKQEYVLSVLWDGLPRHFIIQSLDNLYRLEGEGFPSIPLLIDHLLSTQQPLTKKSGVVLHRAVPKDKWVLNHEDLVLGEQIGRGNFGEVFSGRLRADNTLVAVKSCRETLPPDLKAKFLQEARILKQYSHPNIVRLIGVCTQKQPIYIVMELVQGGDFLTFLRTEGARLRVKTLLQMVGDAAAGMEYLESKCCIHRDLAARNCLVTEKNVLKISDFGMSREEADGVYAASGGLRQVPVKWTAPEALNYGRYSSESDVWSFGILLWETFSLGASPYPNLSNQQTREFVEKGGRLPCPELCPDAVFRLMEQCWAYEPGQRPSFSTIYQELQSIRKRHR
T22 sequence (P06213 28-1382): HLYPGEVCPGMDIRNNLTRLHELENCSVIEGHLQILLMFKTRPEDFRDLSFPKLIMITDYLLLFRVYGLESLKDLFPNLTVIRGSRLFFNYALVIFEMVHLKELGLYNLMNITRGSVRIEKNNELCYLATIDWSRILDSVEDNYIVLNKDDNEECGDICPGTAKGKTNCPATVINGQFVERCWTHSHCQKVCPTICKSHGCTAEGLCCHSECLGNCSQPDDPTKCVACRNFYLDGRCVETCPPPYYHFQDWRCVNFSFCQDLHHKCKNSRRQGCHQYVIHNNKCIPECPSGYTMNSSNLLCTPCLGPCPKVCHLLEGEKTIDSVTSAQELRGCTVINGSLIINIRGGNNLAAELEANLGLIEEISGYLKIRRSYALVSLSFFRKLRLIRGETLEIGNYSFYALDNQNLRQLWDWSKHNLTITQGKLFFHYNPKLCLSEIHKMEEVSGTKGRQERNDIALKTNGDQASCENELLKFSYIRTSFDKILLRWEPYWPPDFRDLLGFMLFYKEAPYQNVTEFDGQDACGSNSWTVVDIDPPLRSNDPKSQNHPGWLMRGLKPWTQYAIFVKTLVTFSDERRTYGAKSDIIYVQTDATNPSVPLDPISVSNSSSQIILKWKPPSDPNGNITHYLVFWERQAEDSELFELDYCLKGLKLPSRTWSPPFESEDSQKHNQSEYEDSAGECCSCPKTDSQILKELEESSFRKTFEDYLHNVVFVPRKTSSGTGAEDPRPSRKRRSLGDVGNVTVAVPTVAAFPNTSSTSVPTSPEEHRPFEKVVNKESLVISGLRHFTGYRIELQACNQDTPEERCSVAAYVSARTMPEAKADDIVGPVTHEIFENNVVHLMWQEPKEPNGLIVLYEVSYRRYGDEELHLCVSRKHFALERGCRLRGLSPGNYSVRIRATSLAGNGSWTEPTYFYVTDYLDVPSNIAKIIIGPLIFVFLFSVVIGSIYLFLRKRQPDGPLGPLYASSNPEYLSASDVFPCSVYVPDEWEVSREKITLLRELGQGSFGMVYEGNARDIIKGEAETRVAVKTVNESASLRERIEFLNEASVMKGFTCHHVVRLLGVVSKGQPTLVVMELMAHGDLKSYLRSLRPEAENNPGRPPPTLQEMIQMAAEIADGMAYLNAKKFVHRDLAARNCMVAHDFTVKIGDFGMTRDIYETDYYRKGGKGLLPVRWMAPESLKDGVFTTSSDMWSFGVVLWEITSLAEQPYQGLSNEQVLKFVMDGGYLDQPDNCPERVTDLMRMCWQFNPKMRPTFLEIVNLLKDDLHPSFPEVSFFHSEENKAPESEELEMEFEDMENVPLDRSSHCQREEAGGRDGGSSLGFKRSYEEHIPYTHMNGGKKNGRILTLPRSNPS
T10 sequence (Q02779 whole entry): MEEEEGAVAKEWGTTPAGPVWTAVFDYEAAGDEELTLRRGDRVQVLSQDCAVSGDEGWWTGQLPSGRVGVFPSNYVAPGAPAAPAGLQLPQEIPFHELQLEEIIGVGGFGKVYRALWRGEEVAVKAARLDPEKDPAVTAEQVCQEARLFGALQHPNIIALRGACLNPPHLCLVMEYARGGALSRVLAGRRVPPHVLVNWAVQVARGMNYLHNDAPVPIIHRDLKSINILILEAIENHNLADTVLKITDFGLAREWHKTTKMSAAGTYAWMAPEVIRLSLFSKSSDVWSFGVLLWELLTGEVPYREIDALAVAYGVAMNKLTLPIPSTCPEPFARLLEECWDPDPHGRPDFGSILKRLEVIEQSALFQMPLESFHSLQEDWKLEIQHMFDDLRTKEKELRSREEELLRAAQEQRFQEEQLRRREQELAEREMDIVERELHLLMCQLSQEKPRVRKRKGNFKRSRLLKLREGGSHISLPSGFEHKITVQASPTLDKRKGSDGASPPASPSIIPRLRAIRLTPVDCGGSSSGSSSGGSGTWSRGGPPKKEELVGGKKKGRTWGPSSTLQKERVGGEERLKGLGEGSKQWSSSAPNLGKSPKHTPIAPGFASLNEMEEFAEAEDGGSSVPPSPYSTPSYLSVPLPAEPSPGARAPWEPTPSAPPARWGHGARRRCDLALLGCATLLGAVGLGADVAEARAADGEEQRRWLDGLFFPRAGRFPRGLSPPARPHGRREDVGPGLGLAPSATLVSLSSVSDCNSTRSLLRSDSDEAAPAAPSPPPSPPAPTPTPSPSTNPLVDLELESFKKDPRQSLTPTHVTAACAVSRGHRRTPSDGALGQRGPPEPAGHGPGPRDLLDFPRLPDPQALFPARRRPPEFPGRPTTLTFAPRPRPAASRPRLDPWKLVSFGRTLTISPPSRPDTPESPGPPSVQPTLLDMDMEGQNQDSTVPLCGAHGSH

N[C@H]1CC[C@H](Nc2cc(-c3cccc(NCc4cccc(F)c4)n3)c(Cl)cn2)CC1 [i-CDK9, N2′-(trans-4-aminocyclohexyl)-5′-chloro-N6-(3-fluorobenzyl)-2,4′-bipyridine-2′,6-diamine]
remaining binding at 1 µM ([1]; 1 µM i-CDK9): 48%
remaining binding at 10 µM ([1]; 10 µM i-CDK9): 84%
remaining binding at 1 µM ([2]; 1 µM i-CDK9): 100%
remaining binding at 10 µM ([2]; 10 µM i-CDK9): 100%
% Retention on Solid Support ([3]; 1 µM i-CDK9): 100%
% Retention on Solid Support ([3]; 10 µM i-CDK9): 82%
remaining binding at 1 µM ([4]; 1 µM i-CDK9): 88%
remaining binding at 10 µM ([4]; 10 µM i-CDK9): 99%
remaining binding at 1 µM ([5]; 1 µM i-CDK9): 100%
remaining binding at 10 µM ([5]; 10 µM i-CDK9): 65%
remaining binding at 1 µM ([6]; 1 µM i-CDK9): 100%
remaining binding at 10 µM ([6]; 10 µM i-CDK9): 100%
remaining binding at 1 µM ([7]; 1 µM i-CDK9): 100%
remaining binding at 10 µM ([7]; 10 µM i-CDK9): 100%
remaining binding at 1 µM ([8]; 1 µM i-CDK9): 95%
remaining binding at 10 µM ([8]; 10 µM i-CDK9): 100%
% Retention on Solid Support ([9]; 1 µM i-CDK9): 96%
% Retention on Solid Support ([9]; 10 µM i-CDK9): 100%
remaining binding at 1 µM ([10]; 1 µM i-CDK9): 100%
remaining binding at 10 µM ([10]; 10 µM i-CDK9): 100%
remaining binding at 1 µM ([11]; 1 µM i-CDK9): 98%
remaining binding at 10 µM ([11]; 10 µM i-CDK9): 96%
remaining binding at 1 µM ([12]; 1 µM i-CDK9): 100%
remaining binding at 10 µM ([12]; 10 µM i-CDK9): 93%
remaining binding at 1 µM ([13]; 1 µM i-CDK9): 40%
remaining binding at 10 µM ([13]; 10 µM i-CDK9): 3.2%
remaining binding at 1 µM ([14]; 1 µM i-CDK9): 96%
remaining binding at 10 µM ([14]; 10 µM i-CDK9): 81%
remaining binding at 1 µM ([15]; 1 µM i-CDK9): 100%
remaining binding at 10 µM ([15]; 10 µM i-CDK9): 100%
remaining binding at 1 µM ([16]; 1 µM i-CDK9): 100%
remaining binding at 10 µM ([16]; 10 µM i-CDK9): 91%
remaining binding at 1 µM ([17]; 1 µM i-CDK9): 97%
remaining binding at 10 µM ([17]; 10 µM i-CDK9): 90%
remaining binding at 1 µM ([18]; 1 µM i-CDK9): 100%
remaining binding at 10 µM ([18]; 10 µM i-CDK9): 89%
% Retention on Solid Support ([19]; 1 µM i-CDK9): 35%
% Retention on Solid Support ([19]; 10 µM i-CDK9): 100%
remaining binding at 1 µM ([20]; 1 µM i-CDK9): 100%
remaining binding at 10 µM ([20]; 10 µM i-CDK9): 95%
remaining binding at 1 µM ([21]; 1 µM i-CDK9): 100%
remaining binding at 10 µM ([21]; 10 µM i-CDK9): 78%
remaining binding at 1 µM ([22]; 1 µM i-CDK9): 100%
remaining binding at 10 µM ([22]; 10 µM i-CDK9): 100%
remaining binding at 1 µM ([23]; 1 µM i-CDK9): 100%
remaining binding at 10 µM ([23]; 10 µM i-CDK9): 81%
remaining binding at 1 µM ([24]; 1 µM i-CDK9): 86%
remaining binding at 10 µM ([24]; 10 µM i-CDK9): 100%
remaining binding at 1 µM ([25]; 1 µM i-CDK9): 100%
remaining binding at 10 µM ([25]; 10 µM i-CDK9): 100%
remaining binding at 1 µM ([26]; 1 µM i-CDK9): 100%
remaining binding at 10 µM ([26]; 10 µM i-CDK9): 23%
remaining binding at 1 µM ([27]; 1 µM i-CDK9): 100%
remaining binding at 10 µM ([27]; 10 µM i-CDK9): 98%
remaining binding at 1 µM ([28]; 1 µM i-CDK9): 80%
remaining binding at 10 µM ([28]; 10 µM i-CDK9): 80%
